Test results: patent US5384128A, “Method of and compounds for treatment for cystic fibrosis” (University of Alabama Research Foundation, priority 1993, dated 1995)

Assays:
T84 cells [1] = assay: 125I- efflux assay (Cl- channel activity), T84 cells; type: cell-based; settings: for potency in stimulating 125I- efflux relative to DM: equimolar concentrations
Excerpt: (§1) Forskolin or cAMP-stimulated Cl^- channel activity is a standard measurement of the activity of Cl^- channels represented by CFTR, while ionomycin or Ca^++ ionophore-stimulated Cl^- channel activity is a measure of the activity of Ca^++ -regulated Cl^- channels which arc different from those represented by CFTR. […] In contrast Ca^++ -regulated Cl^- channels operate normally in CF cells and are opened by ionomycin just as they are in T84 cells.
(§2) The cells employed were (1) T84 cells (ATCC Accession No. CCL 248) (2) CFPAC-1 cells (ATCC Accession No. CRL 1918) (a newly established continuous line of pancreatic duct adenocarcinoma cells from a CF patient which is homozygous for the deletion of phenylalanine in the 508 position of CFTR, the mutation found in 70% of CF patients), (3) clones of CFPAC-1 cells which have been transduced with a retroviral vector (PLJ) containing (PLJ-CFTR-CFPAC) or lacking (PLJ-CFPAC) cDNA for functional CFTR, and (4) 2CFSMEo-, a continuous cell line derived from the tracheal submucosal gland of a CF patient whose exact genotype is unknown but which expresses the phenotype of defective Cl^- channel permeability characteristic of CF.
(§3) In general, cells were washed with 1 ml of efflux medium (140 mM NaCl, 1 mM Ca gluconate, 1 mM Mg gluconate, 5 mM KH2 PO4, 10 mM Tris-Hepes pH 7.4) four times and incubated with ^125 I- (3μl Na ^125 I=12 μC) in 1 ml of the same medium containing 5 mM D-glucose for 1 hour at 37° C. to load the cells with ^125 I. The cells were then washed quickly five times with 1 ml of the efflux medium at 22° C. to remove any ^125 I- that had not been taken up by the cells. One ml of the efflux medium at 22° C. was then added to initiate efflux and left in contact with the cells for 1 minute, before being removed and replaced with another 1 ml of medium. This replacement procedure was carried out 2-5 times before addition of the appropriate surfactant and/or agonist in 1 ml of the same medium to one culture dish (experimental) while to another dish 1 ml of medium without surfactant and/or agonist was added (control). Medium with or without surfactant and/or agonist was replaced at 0.5 minute intervals until the 10 minute time point when the replacement time was prolonged to 1 minute intervals. The samples of the replacement media were counted in a gamma counter to determine the amount of ^125 I- effluxing from the cells into the medium in each time interval. After 15 minutes when measurement of efflux was completed the cells were extracted for 30 minutes with 1 ml 0.2N NaOH, 0.15% SDS and the extract counted to determine the residual ^125 I- remaining in the cells.
(§4) The data is expressed as ^125 I- remaining in the cells (set at 100% at the initiation of efflux) and plotted against the time of efflux in minutes and/or as the ln % of ^125 I- remaining in the cells, plotted against the time of efflux in minutes. Expressing the data in the latter form facilitates calculation of the apparent rate constant for ^125 I- efflux using the equation r=[ln (R1)-ln (R2)]/(t1-t2) where R1 and R2 are the percent of counts remaining in the cell layer at times t1 and t2 respectively.

CFPAC-1 cells = assay: 125I- efflux assay, CFPAC-1 cells; type: cell-based, human
Excerpt: as §2, §3, §4

CF cells = assay: 125I- efflux / Cl- channel opening in CF cells; type: cell-based
Protocol: as §1
In general, cells were washed with 1 ml of efflux medium (140 mM NaCl, 1 mM Ca gluconate, 1 mM Mg gluconate, 5 mM KH2 PO4, 10 mM Tris-Hepes pH 7.4) four times and incubated with ^125 I- (3μl Na ^125 I=12 μC) in 1 ml of the same medium containing 5 mM D-glucose for 1 hour at 37° C. to load the cells with ^125 I. The cells were then washed quickly five times with 1 ml of the efflux medium at 22° C. to remove any ^125 I- that had not been taken up by the cells. […] The samples of the replacement media were counted in a gamma counter to determine the amount of ^125 I- effluxing from the cells into the medium in each time interval. After 15 minutes when measurement of efflux was completed the cells were extracted for 30 minutes with 1 ml 0.2N NaOH, 0.15% SDS and the extract counted to determine the residual ^125 I- remaining in the cells.

CFTR in T84 cells = settings: cited from earlier work
CFPAC-1 = settings: CFPAC-1, homozygous ΔF508; cited from earlier work
2CFSMEo- = assay: 125I- efflux assay, airway epithelial cell line of a CF patient; type: cell-based, human; settings: 2CFSMEo- cells
Excerpt: as §2
(§5) In general, cells were washed with 1 ml of efflux medium (140 mM NaCl, 1 mM Ca gluconate, 1 mM Mg gluconate, 5 mM KH2 PO4, 10 mM Tris-Hepes pH 7.4) four times and incubated with ^125 I- (3μl Na ^125 I=12 μC) in 1 ml of the same medium containing 5 mM D-glucose for 1 hour at 37° C. to load the cells with ^125 I. The cells were then washed quickly five times with 1 ml of the efflux medium at 22° C. to remove any ^125 I- that had not been taken up by the cells. One ml of the efflux medium at 22° C. was then added to initiate efflux and left in contact with the cells for 1 minute, before being removed and replaced with another 1 ml of medium. […] The samples of the replacement media were counted in a gamma counter to determine the amount of ^125 I- effluxing from the cells into the medium in each time interval. After 15 minutes when measurement of efflux was completed the cells were extracted for 30 minutes with 1 ml 0.2N NaOH, 0.15% SDS and the extract counted to determine the residual ^125 I- remaining in the cells.
(§6) The data is expressed as ^125 I- remaining in the cells (set at 100% at the initiation of efflux) and plotted against the time of efflux in minutes and/or as the ln % of ^125 I- remaining in the cells, plotted against the time of efflux in minutes. […]

[2] = Effective dosage (general statement); type: cell-based; settings: maltoside with alkyl chain of 12, 13 or 14 carbon atoms
PLJ-CFPAC-10 = assay: 125I- efflux assay, CFPAC-1 cells transduced with vector lacking CFTR cDNA; type: cell-based, human
Excerpt: as §2, §5, §6

PLJ-CFTR-CFPAC-10 = assay: 125I- efflux assay, CFPAC-1 cells transduced with wild-type CFTR cDNA; type: cell-based, human; settings: vector containing wild-type CFTR cDNA (PLJ-CFTR-CFPAC-10)
Excerpt: as §2, §5, §6

T84 cells [3] = settings: comparison statement; cited from earlier work
T84 cells [4] = settings: human

## C[C@H](CCC(=O)O)C[C@H](C)C[C@H](C)C(=O)/C=C(\O)[C@H](C)C[C@H](C)C/C=C/[C@@H](C)[C@@H](O)[C@@H](C)[C@@H](O)C[C@@H]1CC[C@@](C)([C@H]2CC[C@@](C)([C@@H](C)O)O2)O1 [ionomycin, reference compound]
T84 cells [1]; T84 cells, 1 μM ionomycin
  stimulation of 125I- efflux: stimulation
CFPAC-1 cells
  response in 125I- efflux assay: responds briskly
CF cells
  Opening of Ca++-regulated Cl- channels: opened

## C=C[C@@]1(C)CC(=O)[C@]2(O)[C@@]3(C)[C@@H](O)CCC(C)(C)[C@@H]3[C@H](O)[C@H](OC(C)=O)[C@@]2(C)O1 [forskolin]
T84 cells [1]; T84 cells, 20 μM forskolin
  stimulation of 125I- efflux: stimulation
CFPAC-1 cells
  response in 125I- efflux assay: unresponsive
CFTR in T84 cells
  activation of CFTR: activate CFTR in T84 cells
CF cells
  125I- efflux in response to agonist: not stimulated
CFPAC-1
  activation of the Cl- channel: inability of the channel to be activated

## CCCCCCCCCCCCCO[C@@H]1O[C@H](CO)[C@@H](OC2OC(CO)C(O)C(O)C2O)[C@H](O)[C@H]1O (stereo in doubt) [tri DM, tridecylmaltoside]
T84 cells [1]
  potency as Cl- channel activator among alkylmaltosides tested: most potent
T84 cells [1]; T84 cells
  cause of 125I- efflux stimulation: cell lysis: not due to lysis of the cells
  potency change on lengthening alkyl chain, DM as reference standard: markedly increases the potency
  potency in stimulating 125I- efflux relative to DM: more potent than DM
T84 cells [1]; T84 cells, 10-100 μM
  stimulation of 125I- efflux, dose dependence: dose-dependent stimulation
CFPAC-1 cells
  increase in 125I- efflux, dose dependence: dose-dependent increase
2CFSMEo-
  stimulation of 125I- efflux, dose dependence: dose-dependent stimulation
[2]
  effective dosage: 10 to 400 µM
PLJ-CFPAC-10
  Cl- channel activity as measured by increased 125I- efflux: stimulate
PLJ-CFTR-CFPAC-10
  Cl- channel activity as measured by increased 125I- efflux: stimulate

## CCCCCCCCCCCCOS(=O)(=O)[O-].[Na+] [sodium dodecyl sulfate (SDS), sodium dodecyl sulfate]
T84 cells [3]
  release upon cell lysis: precipitous release

## CCCCCCCCCCCCO[C@@H]1O[C@H](CO)[C@@H](O[C@H]2O[C@H](CO)[C@@H](O)[C@H](O)[C@H]2O)[C@H](O)[C@H]1O [DM, dodecylmaltoside]
T84 cells [1]; T84 cells
  cause of 125I- efflux stimulation: cell lysis: not due to lysis of the cells
  reversibility of response upon removal of the agent: reversible
T84 cells [1]; T84 cells, 100 μM or 200 μM DM
  rate of 125I- efflux during exposure, compared to control rate: increased rate
  rate of 125I- efflux with DM remaining during efflux phase after preincubation, compared to same concentration without preincubation: comparable
T84 cells [1]; T84 cells, 100 μM or 200 μM DM, after 2 min exposure
  rate of 125I- efflux after removal of agent: reverts to the control rate
T84 cells [1]; T84 cells, 10-400 μM
  stimulation of 125I- efflux, dose dependence: dose-dependent stimulation
T84 cells [1]; T84 cells, 80-100 μM DM plus 20 μM forskolin
  rate of 125I- efflux on further exposure to forskolin in presence of DM: additional increase
[2]
  effective dosage: 10 to 400 µM
PLJ-CFPAC-10
  Cl- channel activity as measured by increased 125I- efflux: stimulate
PLJ-CFTR-CFPAC-10
  Cl- channel activity as measured by increased 125I- efflux: stimulate
T84 cells [4]
  MNTC: < 150 µM

## CCCCCCCCO[C@@H]1O[C@H](CO)[C@@H](O)[C@H](O)[C@H]1O [octylglucoside]
T84 cells [1]; T84 cells
  concentration at which an appreciable effect in stimulating 125I- efflux is shown: ≥ 500 µM
  potency relative to DM, tri DM and tetra DM: less potent than DM, tri DM and tetra DM
  stimulation of 125I- efflux: stimulate

## dodecylsucrose [DS]
T84 cells [1]; T84 cells
  activity as Cl- channel activator on altering saccharide moiety, compared to DM at 100 μM: markedly reduces the activity
  potency relative to DM, tri DM and tetra DM: less potent than DM, tri DM and tetra DM
  stimulation of 125I- efflux: stimulate
T84 cells [1]; T84 cells, 100 μM
  effect on 125I- efflux relative to DM at 100 μM: significantly smaller effect than DM

## CCCCCCCCCCCCCCO[C@@H]1O[C@H](CO)[C@@H](O[C@@H]2O[C@@H](CO)[C@H](O)[C@@H](O)[C@@H]2O)[C@H](O)[C@H]1O (stereo in doubt) [tetra DM, tetradecylmaltoside]
T84 cells [1]
  potency as Cl- channel activator among alkylmaltosides tested: most potent
T84 cells [1]; T84 cells
  cause of 125I- efflux stimulation: cell lysis: not due to lysis of the cells
  potency change on lengthening alkyl chain, DM as reference standard: markedly increases the potency
  potency in stimulating 125I- efflux relative to DM: more potent than DM
T84 cells [1]; T84 cells, 10-100 μM
  stimulation of 125I- efflux, dose dependence: dose-dependent stimulation
CFPAC-1 cells
  increase in 125I- efflux, dose dependence: dose-dependent increase
2CFSMEo-
  stimulation of 125I- efflux, dose dependence: dose-dependent stimulation
[2]
  effective dosage: 10 to 400 µM
PLJ-CFPAC-10
  Cl- channel activity as measured by increased 125I- efflux: stimulate
PLJ-CFTR-CFPAC-10
  Cl- channel activity as measured by increased 125I- efflux: stimulate

## C[C@@H]1CC[C@@]2(OC1)O[C@H]1[C@@H](O)[C@H]3[C@@H]4CC[C@H]5C[C@@H](O[C@@H]6O[C@H](CO)[C@H](O[C@@H]7O[C@H](CO)[C@@H](O)[C@H](O[C@@H]8OC[C@@H](O)[C@H](O)[C@H]8O)[C@H]7O[C@@H]7O[C@H](CO)[C@H](O)[C@H](O[C@@H]8O[C@H](CO)[C@@H](O)[C@H](O)[C@H]8O)[C@H]7O)[C@H](O)[C@H]6O)[C@H](O)C[C@]5(C)[C@H]4CC[C@]3(C)[C@H]1[C@@H]2C [Digitonin, digitonin, reference compound]
T84 cells [1]; T84 cells, 50 μM
  stimulation of 125I- efflux: pronounced effect

## O=C(O)c1cc([N+](=O)[O-])ccc1NCCCc1ccccc1 [NPPB, reference compound]
T84 cells [1]; T84 cells, blocker of some Cl- channels
  125I- efflux inhibition: inhibits
2CFSMEo-
  blocking of Cl- channels: blocked

## C[S+](C)[O-] [Dimethylsulfoxide (DMSO), Dimethylsulfoxide, reference compound]
T84 cells [1]; T84 cells, 17.6 mM
  effect in stimulating 125I- efflux: no effect

## CCCCCCCCCCCCO[C@@H]1O[C@H](CO)[C@@H](O)[C@H](O)[C@H]1O [DG, dodecylglucoside]
T84 cells [1]; T84 cells
  activity as Cl- channel activator on altering saccharide moiety, compared to DM at 100 μM: markedly reduces the activity
T84 cells [1]; T84 cells, 100 μM
  effect in stimulating 125I- efflux: minimal effect
